Reference: US6211439A, “Herbicide resistance in plants” (MGI Pharma, Inc, priority 1995, dated 2001)

Key:
control seedlings = test: Seedling assay, control (herbicide sensitive) seedlings; assay type: in vivo, maize
Text: Seeds to be used as controls in the heritability assay were obtained from regenerated plants from an herbicide sensitive cell line of the same genetic background as line XA17. These regenerated plants were crossed with pollen obtained from a herbicide sensitive inbred B73 plant grown from seed. Seeds were harvested approximately forty days after pollination.
Twenty control seeds and ten XA17 seeds were surface sterilized with 2.6% sodium hypochlorite for twenty minutes and then washed with sterile distilled water. The seed was imbibed overnight in sterile water containing a small quantity of the fungicide, captan (N-trichloromethylthio-4-cyclohexene-1,2-dicarboximide). The mature embryos were then excised from the seed and plated scutellum side down on solid MS media without 2,4-D. Ten control seeds were plated on media containing no 214 and ten were plated in the presence of 6×10^-8M 214 which had been incorporated into the medium after autoclaving but before gelling. All ten XA17 seeds were plated in the presence of 6×10^-8 M 214. Seedlings were evaluated seven days after plating.
XA17 seeds homozygous for the resistance trait were obtained as described in Section 6.4.6. […] Assays were conducted as described in Section 6.4.5.

Corn Suspension Cultures = test: Free amino acid levels in suspension cultures of the embryogenic cell line used for selection; assay type: cell-based, maize; conditions: 1 × 10^-5 M 997
Procedure: Suspension culture cells were treated for 3.5 hours or 48 hours with 1×10^-5 M 997. Cells were removed from suspension by filtration and 1 gram fresh weight quantities were ground with sand with a mortar and pestle in 1 ml 5% TCA. Four ml of 5% TCA were added and the extract centrifuged at 10,000×g for 10 minutes. The pellet was reextracted and the supernatants combined and subjected to cation exchange chromatography. The samples were applied to Bond Elut SCX columns (Analytichem International Inc., Harbor City, Calif.) which had been equilibrated with 5% TCA. Following sample application, the columns were washed with 5 ml distilled, deionized water, and the amino acids were eluted with 2 ml aliquots of 5% v/v triethylamine. The aliquots were combined (6 ml), lyophilized, and subjected to amino acid analysis with a Kontron Liquemat III amino acid analyzer (Hesber, Middlesex TW5 OQU, England).
The embryogenic cell line used in the selection for herbicide resistant cells (see Section 6.2.1) was different from the cell line used in the characterization of the site of action of 997 described in Section 6.1. Consequently, the effects of 997 on pool sizes of free amino acids in the cell line used in the selection procedure was also studied. The protocol described in Section 6.1.4 was followed for these studies.

[1] = control seedlings, 6×10^-8 M 214, seven days after plating
[2] = average ± standard deviation of three replicates

CC(C)C1(C)NC(c2nc3ccccc3cc2C(=O)O)=NC1=O (stereo not shown) [compound 214, 2-(5-isopropyl-5-methyl-4-oxo-2-imidazolin-2-yl)3-quinolinecarboxylic acid]
IC50 (control seedlings; Zea mays, read-out: concentration inhibiting shoot growth 50%): 30 nM | average root length (control seedlings; [1]): 1.1 cm | average shoot length (control seedlings; [1]): 1.5 cm

CC(C)C1(C)NC(c2ncccc2C(=O)O)=NC1=O (stereo not shown) [compound 997, 2-(5-isopropyl-5-methyl-4-oxo-2-imidazolin-2-yl)nicotinic acid]
ala B/A (treated/control) (Corn Suspension Cultures): 2.6 | arg B/A (treated/control) (Corn Suspension Cultures): 1.4 | asp B/A (treated/control) (Corn Suspension Cultures): 2.2 | glu B/A (treated/control) (Corn Suspension Cultures): 3.8 | gly B/A (treated/control) (Corn Suspension Cultures): 13.0 | ile B/A (treated/control) (Corn Suspension Cultures): 2.4 | leu B/A (treated/control) (Corn Suspension Cultures): 0.52 | lys B/A (treated/control) (Corn Suspension Cultures): 1.8 | met B/A (treated/control) (Corn Suspension Cultures): 3.8 | phe B/A (treated/control) (Corn Suspension Cultures): 6.6 | ser B/A (treated/control) (Corn Suspension Cultures): 8.7 | thr B/A (treated/control) (Corn Suspension Cultures): 6.4 | tyr B/A (treated/control) (Corn Suspension Cultures): 2.1 | val B/A (treated/control) (Corn Suspension Cultures): 0.27 | Free ala level (B) (Corn Suspension Cultures; [2]): 5750 ± 1100 n mol per g fresh wt tissue | Free arg level (B) (Corn Suspension Cultures; [2]): 70 ± 60 n mol per g fresh wt tissue | Free asp level (B) (Corn Suspension Cultures; [2]): 5700 ± 650 n mol per g fresh wt tissue | Free glu level (B) (Corn Suspension Cultures; [2]): 8550 ± 210 n mol per g fresh wt tissue | Free gly level (B) (Corn Suspension Cultures; [2]): 3130 ± 230 n mol per g fresh wt tissue | Free ile level (B) (Corn Suspension Cultures; [2]): 220 ± 10 n mol per g fresh wt tissue | Free leu level (B) (Corn Suspension Cultures; [2]): 120 ± 10 n mol per g fresh wt tissue | Free lys level (B) (Corn Suspension Cultures; [2]): 230 ± 140 n mol per g fresh wt tissue | Free met level (B) (Corn Suspension Cultures; [2]): 190 ± 80 n mol per g fresh wt tissue | Free phe level (B) (Corn Suspension Cultures; [2]): 790 ± 90 n mol per g fresh wt tissue | Free ser level (B) (Corn Suspension Cultures; [2]): 20000 ± 2000 n mol per g fresh wt tissue | Free thr level (B) (Corn Suspension Cultures; [2]): 2960 ± 270 n mol per g fresh wt tissue | Free tyr level (B) (Corn Suspension Cultures; [2]): 410 ± 80 n mol per g fresh wt tissue | Free val level (B) (Corn Suspension Cultures; [2]): 140 ± 10 n mol per g fresh wt tissue
